Like-named read-outs stand apart in the source and are kept apart here.
Test system: Lox-IMVI melanoma cell line
Experiment: Lox-IMVI anti-proliferative assay (growth inhibition, Cell Titer-Glo)
Assay type: cell-based, human
Conditions: Homo sapiens, read-out: Activity
Summary of the method: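 Growth inhibition is assessed over 72 h in RPMI + 10% FBS at 0.2% DMSO, with ATP-based luminescence used as the viability measure. IC50 is fitted from normalized dose-response data.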

[1] = IC50 activity level in the cell-based Lox-IMVI anti-proliferative assay
[2] = Lox-IMVI anti-proliferative assay, IC50 activity level

| SMILES | IC50 [1] | IC50 [2] |
| --- | --- | --- |
| NC(=O)[C@H]1CC[C@@H](n2c(Nc3c(F)cc(Cl)cc3Cl)nc3cnc(N[C@H]4CCC[C@@H](O)C4)nc32)CC1 [Example 376, (1R,4s)-4-(8-(2,4-dichloro-6-fluorophenylamino)-2-((1S,3R)-3-hydroxycyclohexylamino)-9H-purin-9-yl)cyclohexanecarboxamide] | > 1000 nM |  |
| NC(=O)[C@H]1CC[C@@H](n2c(Nc3c(F)ccc(Cl)c3F)nc3cnc(N[C@H]4CCC[C@@H](O)C4)nc32)CC1 [Example 377, (1R,4s)-4-(8-(3-chloro-2,6-difluorophenylamino)-2-((1S,3R)-3-hydroxycyclohexylamino)-9H-purin-9-yl)cyclohexanecarboxamide] | > 1000 nM |  |
| N#Cc1cc(F)c(Nc2nc3cnc(NC4CCC(F)(F)CC4)nc3n2[C@H]2CC[C@@H](C(N)=O)CC2)c(Cl)c1 [Example 378, (1s,4s)-4-(8-(2-chloro-4-cyano-6-fluorophenylamino)-2-(4,4-difluorocyclohexylamino)-9H-purin-9-yl)cyclohexanecarboxamide] | 250 to 500 nM |  |
| N#Cc1ccc(Nc2nc3cnc(NC4CCOCC4)nc3n2[C@H]2CC[C@@H](C(N)=O)CC2)c(F)c1F [Example 379, (1s,4s)-4-(8-(4-cyano-2,3-difluorophenylamino)-2-(tetrahydro-2H-pyran-4-ylamino)-9H-purin-9-yl)cyclohexanecarboxamide] | > 1000 nM |  |
| COc1ccc(Nc2nc3cnc(NC4CCOCC4)nc3n2[C@H]2CC[C@@H](C(N)=O)CC2)c(F)c1F [Example 380, (1s,4s)-4-(8-(2,3-difluoro-4-methoxyphenylamino)-2-(tetrahydro-2H-pyran-4-ylamino)-9H-purin-9-yl)cyclohexanecarboxamide] | > 1000 nM |  |
| CC1(C)CC[C@@H](Nc2ncc3nc(Nc4c(F)cc(F)cc4F)n([C@H]4CC[C@@H](C(N)=O)CC4)c3n2)C[C@H]1O [Example 381, (1S,4s)-4-(2-((1R,3R)-3-hydroxy-4,4-dimethylcyclohexylamino)-8-(2,4,6-trifluorophenylamino)-9H-purin-9-yl)cyclohexanecarboxamide] | > 1000 nM |  |
| CC1(C)CC[C@@H](Nc2ncc3nc(Nc4c(F)cccc4F)n([C@H]4CC[C@@H](C(N)=O)CC4)c3n2)C[C@H]1O [Example 382, (1S,4s)-4-(8-(2,6-difluorophenylamino)-2-((1R,3R)-3-hydroxy-4,4-dimethylcyclohexylamino)-9H-purin-9-yl)cyclohexanecarboxamide] | > 1000 nM |  |
| CC1(C)CC[C@@H](Nc2ncc3nc(Nc4c(Cl)cccc4Cl)n([C@H]4CC[C@@H](C(N)=O)CC4)c3n2)C[C@H]1O [Example 383, (1S,4s)-4-(8-(2,6-dichlorophenylamino)-2-((1R,3R)-3-hydroxy-4,4-dimethylcyclohexylamino)-9H-purin-9-yl)cyclohexanecarboxamide] | > 1000 nM |  |
| CC1(C)CC[C@@H](Nc2ncc3nc(Nc4c(F)cccc4Cl)n([C@H]4CC[C@@H](C(N)=O)CC4)c3n2)C[C@H]1O [Example 384, (1S,4s)-4-(8-(2-chloro-6-fluorophenylamino)-2-((1R,3R)-3-hydroxy-4,4-dimethylcyclohexylamino)-9H-purin-9-yl)cyclohexanecarboxamide] | > 1000 nM |  |
| CC1(C)CC[C@@H](Nc2ncc3nc(Nc4c(F)cc(F)cc4Cl)n([C@H]4CC[C@@H](C(N)=O)CC4)c3n2)C[C@H]1O [Example 385, (1S,4s)-4-(8-(2-chloro-4,6-difluorophenylamino)-2-((1R,3R)-3-hydroxy-4,4-dimethylcyclohexylamino)-9H-purin-9-yl)cyclohexanecarboxamide] | > 1000 nM |  |
| CC1(C)CC[C@@H](Nc2ncc3nc(Nc4c(F)cc(Cl)cc4F)n([C@H]4CC[C@@H](C(N)=O)CC4)c3n2)C[C@H]1O [Example 386, (1S,4s)-4-(8-(4-chloro-2,6-difluorophenylamino)-2-((1R,3R)-3-hydroxy-4,4-dimethylcyclohexylamino)-9H-purin-9-yl)cyclohexanecarboxamide] | > 1000 nM |  |
| CC1(C)CC[C@@H](Nc2ncc3nc(Nc4c(Cl)cc(Cl)cc4Cl)n([C@H]4CC[C@@H](C(N)=O)CC4)c3n2)C[C@H]1O [Example 387, (1S,4s)-4-(2-((1R,3R)-3-hydroxy-4,4-dimethylcyclohexylamino)-8-(2,4,6-tnchlorophenylarnino)-9H-purin-9-yl)cyclohexanecarboxamide] | > 1000 nM |  |
| CC1(C)CC[C@@H](Nc2ncc3nc(Nc4c(Cl)cc(F)cc4Cl)n([C@H]4CC[C@@H](C(N)=O)CC4)c3n2)C[C@H]1O [Example 388, (1S,4s)-4-(8-(2,6-dichloro-4-fluorophenylamino)-2-((1R,3R)-3-hydroxy-4,4-dimethylcyclohexylamino)-9H-purin-9-yl)cyclohexanecarboxamide] | > 1000 nM |  |
| CC1(C)CC[C@@H](Nc2ncc3nc(Nc4c(F)cc(Cl)cc4Cl)n([C@H]4CC[C@@H](C(N)=O)CC4)c3n2)C[C@H]1O [Example 389, (1S,4s)-4-(8-(2,4-dichloro-6-fluorophenylamino)-2-((1R,3R)-3-hydroxy-4,4-dimethylcyclohexylamino)-9H-purin-9-yl)cyclohexanecarboxamide] | > 1000 nM |  |
| CC1(C)CC[C@@H](Nc2ncc3nc(Nc4c(F)ccc(Cl)c4F)n([C@H]4CC[C@@H](C(N)=O)CC4)c3n2)C[C@H]1O [Example 390, (1S,4s)-4-(8-(3-chloro-2,6-difluorophenylamino)-2-((1R,3R)-3-hydroxy-4,4-dimethylcyclohexylamino)-9H-purin-9-yl)cyclohexanecarboxamide] | > 1000 nM |  |
| C[C@@H]1CC[C@@H](Nc2ncc3nc(Nc4ccc(Cl)cc4Cl)n([C@H]4CC[C@@H](C(N)=O)CC4)c3n2)C[C@H]1O [Example 391, (1S,4s)-4-(8-(2,4-dichlorophenylamino)-2-((1R,3R,4R)-3-hydroxy-4-methylcyclohexylamino)-9H-purin-9-yl)cyclohexanecarboxamide] | > 1000 nM |  |
| N#Cc1cc(Cl)c(Nc2nc3cnc(NC4CCC4)nc3n2[C@H]2CC[C@@H](C(N)=O)CC2)c(Cl)c1 [Example 392, (1s,4s)-4-(2-(cyclobutylamino)-8-(2,6-dichloro-4-cyanophenylamino)-9H-purin-9-yl)cyclohexanecarboxamide] | < 250 nM |  |
| N#Cc1cc(F)c(Nc2nc3cnc(NC4CCC4)nc3n2[C@H]2CC[C@@H](C(N)=O)CC2)c(Cl)c1 [Example 393, (1s,4s)-4-(8-(2-chloro-4-cyano-6-fluorophenylamino)-2-(cyclobutylamino)-9H-purin-9-yl)cyclohexanecarboxamide] | 250 to 500 nM |  |
| C[C@@H](CO)Nc1ncc2nc(Nc3c(F)cc(C#N)cc3F)n([C@H]3CC[C@@H](C(N)=O)CC3)c2n1 [Example 394, (1R,4s)-4-(8-(4-cyano-2,6-difluorophenylamino)-2-((S)-1-hydroxypropan-2-ylamino)-9H-purin-9-yl)cyclohexanecarboxamide] | > 1000 nM |  |
| C[C@@H](CO)Nc1ncc2nc(Nc3c(F)cc(C#N)cc3Cl)n([C@H]3CC[C@@H](C(N)=O)CC3)c2n1 [Example 395, (1R,4s)-4-(8-(2-chloro-4-cyano-6-fluorophenylamino)-2-((S)-1-hydroxypropan-2-ylamino)-9H-purin-9-yl)cyclohexanecarboxamide] | > 1000 nM |  |
| N#Cc1cc(F)c(Nc2nc3cnc(NC4CCC(F)(F)CC4)nc3n2[C@H]2CC[C@@H](C(N)=O)CC2)c(F)c1 [Example 396, (1s,4s)-4-(8-(4-cyano-2,6-difluorophenylamino)-2-(4,4-difluorocyclohexylamino)-9H-purin-9-yl)cyclohexanecarboxamide] | 500 to 1000 nM |  |
| N#Cc1cc(Cl)c(Nc2nc3cnc(NC4CCC(F)(F)CC4)nc3n2[C@H]2CC[C@@H](C(N)=O)CC2)c(Cl)c1 [Example 397, (1s,4s)-4-(8-(2,6-dichloro-4-cyanophenylamino)-2-(4,4-difluorocyclohexylamino)-9H-purin-9-yl)cyclohexanecarboxamide] | < 250 nM |  |
| NC(=O)[C@H]1CC[C@@H](n2c(Nc3c(F)cc(C(F)(F)F)cc3Cl)nc3cnc(NC4CCOCC4)nc32)CC1 [Example 398, (1s,4s)-4-(8-(2-chloro-6-fluoro-4-(trifluoromethyl)phenylamino)-2-(tetrahydro-2H-pyran-4-ylamino)-9H-purin-9-yl)cyclohexanecarboxamide] | 500 to 1000 nM |  |
| N#Cc1cc(Cl)c(Nc2nc3cnc(NC4CC(F)(F)C4)nc3n2[C@H]2CC[C@@H](C(N)=O)CC2)c(Cl)c1 [Example 399, (1s,4s)-4-(8-(2,6-dichloro-4-cyanophenylamino)-2-(3,3-difluorocyclobutylamino)-9H-purin-9-yl)cyclohexanecarboxamide] |  | 250 to 500 nM |
| N#Cc1cc(F)c(Nc2nc3cnc(NC4CC(F)(F)C4)nc3n2[C@H]2CC[C@@H](C(N)=O)CC2)c(Cl)c1 [Example 400, (1s,4s)-4-(8-(2-chloro-4-cyano-6-fluorophenylamino)-2-(3,3-difluorocyclobutylamino)-9H-purin-9-yl)cyclohexanecarboxamide] |  | 500 to 1000 nM |
| N#Cc1cc(F)c(Nc2nc3cnc(NC4CC(F)(F)C4)nc3n2[C@H]2CC[C@@H](C(N)=O)CC2)c(F)c1 [Example 401, (1s,4s)-4-(8-(4-cyano-2,6-difluorophenylamino)-2-(3,3-difluorocyclobutylamino)-9H-purin-9-yl)cyclohexanecarboxamide] |  | > 1000 nM |
| CC[C@@H](CO)Nc1ncc2nc(Nc3c(F)cc(C#N)cc3F)n([C@H]3CC[C@@H](C(N)=O)CC3)c2n1 [Example 402, (1R,4s)-4-(8-(4-cyano-2,6-difluorophenylamino)-2-((S)-1-hydroxybutan-2-ylamino)-9H-purin-9-yl)cyclohexanecarboxamide] |  | > 1000 nM |
| COC(=O)N1CCCC(Nc2ncc3nc(Nc4c(F)cc(F)cc4F)n([C@H]4CC[C@@H](C(N)=O)CC4)c3n2)C1 (stereo partly drawn) [Example 403, (R)-methyl 3-(9-((1s,4S)-4-carbamoylcyclohexyl)-8-(2,4,6-tnfluorophenylamino)-9H-purin-2-ylamino)piperidine-1-carboxylate] |  | > 1000 nM |
